Results published in ChEMBL document CHEMBL5257026, “Progress and prospects on DENV protease inhibitors” (Eur J Med Chem, 2016).
pIC50, pKi: −log10 of the molar value. Starred links: 1 amine or outer side, 2 acyl side, 3 side chain; linkers in the order of their positions; H or OH if unused. Non-standard residues stand in square brackets, D forms with d. Residues, ends and D or L forms follow the SMILES beside them. *: point of attachment. Arg(ψCOCO) = N=C(N)NCCC[C@H](N[*:1])C(=O)C(=O)[*:2]; Nle = CCCC[C@H](N)C(=O)O; PhAc = O=C(Cc1ccccc1)*; Bz = O=C(c1ccccc1)*

Columns and labels:
[1] = Inhibition of DENV4 N-terminally hexa-His tagged NS2B (48 to 95 residues) -NS3 (1 to 184 residues) protease expressed in Escherichia coli XL1 Blue using QXL570-Phe-Ala-Ser-Gly-Lys-Arg-Ser-Gln-Ile-Gly-Leu-Lys(5-TAMRA)-NH2 as substrate and measured for 15 mins by FRET assay; set-up: species or system dengue virus type 4
[2] = Inhibition of DENV3 N-terminally hexa-His tagged NS2B (48 to 95 residues) -NS3 (1 to 184 residues) protease expressed in Escherichia coli XL1 Blue using QXL570-Phe-Ala-Ser-Gly-Lys-Arg-Ser-Gln-Ile-Gly-Leu-Lys(5-TAMRA)-NH2 as substrate and measured for 15 mins by FRET assay; set-up: species or system dengue virus type 3
[3] = Inhibition of DENV2 N-terminally hexa-His tagged NS2B (48 to 95 residues) -NS3 (1 to 184 residues) protease expressed in Escherichia coli XL1 Blue using QXL570-Phe-Ala-Ser-Gly-Lys-Arg-Ser-Gln-Ile-Gly-Leu-Lys(5-TAMRA)-NH2 as substrate and measured for 15 mins by FRET assay; set-up: species or system dengue virus type 2
[4] = Inhibition of DENV1 N-terminally hexa-His tagged NS2B (48 to 95 residues) -NS3 (1 to 184 residues) protease expressed in Escherichia coli XL1 Blue using QXL570-Phe-Ala-Ser-Gly-Lys-Arg-Ser-Gln-Ile-Gly-Leu-Lys(5-TAMRA)-NH2 as substrate and measured for 15 mins by FRET assay; set-up: species or system dengue virus type 1
[5] = Inhibition of DENV2 recombinant NS2B-NS3 protease expressed in Escherichia coli C41 using GRR-AMC as substrate incubated for 15 mins by Lineweaver-Burk plot analysis; set-up: species or system dengue virus type 2
[6] = Inhibition of DENV2 recombinant NS2B-(G4-S-G4)-NS3 protease using Bz-nKRR-AMC as substrate preincubated for 30 mins followed by substrate addition measured after 30 mins by fluorescence spectrophotometric analysis; set-up: species or system dengue virus type 2
[7] = Inhibition of DENV2 recombinant NS2B-NS3 protease expressed in Escherichia coli JM109 using acetyl-TTSTRR-para-nitroaniline as substrate preincubated for 10 mins followed by substrate addition measured after 120 mins by spectrophotometric analysis; set-up: species or system dengue virus type 2
[8] = Inhibition of DENV2 recombinant CF40gly(T)R fused NS2B-NS3 protease expressed in Escherichia coli XL1-Blue MRF using Boc-Gly-Arg-Arg-MCA as substrate incubated for 30 mins by fluorescence spectrophotometeric assay; set-up: species or system dengue virus type 2
[9] = Inhibition of DENV2 recombinant CF40-glycine fused NS2B-NS3 protease expressed in Escherichia coli SG13009 using Ac-TTSTRR-pNA as substrate preincubated for 50 mins followed by substrate addition by spectrophotometric assay; set-up: species or system dengue virus type 2
[10] = Inhibition of DENV2 hydrophilic domain of NS2B (48 aminoacids)-NS3 (185 aminoacids) protease using Bz-Nle-Lys-Arg-Arg-AMC as substrate preincubated for 15 mins followed by substrate addition by spectrofluorometeric assay; set-up: species or system dengue virus type 2
[11] = Inhibition of DENV2 NS2B-G4-S-G4-NS3 protease using Bz-nKRR-AMC as substrate preincubated for 30 mins followed by substrate addition by fluorescence microplate reader assay; set-up: species or system dengue virus type 2
[12] = Inhibition of DENV2 NS2B-NS3 protease expressed in Escherichia coli BL21 (DE3) using Bz-Nle-Lys-Arg-Arg-AMC as substrate preincubated for 30 mins followed by substrate addition by fluorescence plate reader analysis; set-up: species or system dengue virus type 2

## N=C(N)Nc1ccc(O[C@H]2C[C@@H](O)[C@H](NC(=N)N)C[C@@H]2NC(=N)N)c(NC(=N)N)c1
[1]
  pIC50: 4.24
[2]
  pIC50: 4.70
[3]
  pIC50: 4.82
[4]
  pIC50: 5.01

## CC(=O)N[C@@H](CCCNC(=N)N)C(=O)N[C@H](C(=O)N[C@@H](CO)C(=O)N[C@@H](CCCCN)C(=O)N[C@@H](CCCCN)C(=O)N[C@@H](CCCNC(=N)N)C(N)=O)[C@@H](C)O (Ac-RTSKKR-NH2)
[5]
  pKi: 4.92

## N=C(N)NCCC[C@@H](C=O)NC(=O)[C@H](CCCNC(=N)N)NC(=O)[C@H](CCCCN)NC(=O)Cc1ccccc1 (PhAc-Lys-Arg-Arg-aldehyde)
[6]
  pIC50: 5.17

## O=C(Nc1nc2cc(O)c(O)cc2s1)c1ccccc1Sc1ccc(C(F)(F)F)cc1
[7]
  pIC50: 5.44

## Cc1cc(C)c2c(c1)O[C@@H](c1ccc(N(C)C)cc1)CC2=O
[8]
  pKi: 3.92

## CCN1/C(=C/C=C/c2oc3ccc(-c4ccccc4)cc3[n+]2CC)Oc2ccc(-c3ccccc3)cc21
[7]
  pIC50: 4.69

## CC(=O)N[C@@H](CCCCN)C(=O)N[C@@H](CCCNC(=N)N)C(N)=O (Ac-Lys-Arg-NH2)
[5]
  pKi: 3.92

## CCCC[C@H](NC(=O)c1ccccc1)C(=O)N[C@@H](CCCCN)C(=O)N[C@@H](CCCNC(=N)N)C(=O)N[C@H](C=O)CCCNC(=N)N (Bz-[Nle]KRR-aldehyde)
[6]
  pIC50: 5.02

## CC(=O)N[C@@H](CCCCN)C(=O)N[C@@H](CCCCN)C(=O)N[C@@H](CCCNC(=N)N)C(N)=O (Ac-Lys-Lys-Arg-NH2)
[5]
  pKi: 4.65

## CC(=O)N[C@@H](Cc1ccccc1)C(=O)N[C@@H](C)C(=O)N[C@@H](C)C(=O)NCC(=O)N[C@@H](CCCNC(=N)N)C(=O)N[C@H](C=O)CCCNC(=N)N (Ac-FAAGRR-aldehyde)
[9]
  pKi: 4.80

## N=C(N)Nc1ccccc1O[C@H]1C[C@@H](Oc2ccccc2NC(=N)N)[C@H](NC(=N)N)C[C@@H]1NC(=N)N
[1]
  pIC50: 4.26
[2]
  pIC50: 4.77
[3]
  pIC50: 4.49
[4]
  pIC50: 5.06

## CC(=O)N[C@H](C(=O)N[C@H](C(=O)N[C@@H](CO)C(=O)N[C@H](C(=O)N[C@@H](CCCNC(=N)N)C(=O)N[C@@H](CCCNC(=N)N)C(=O)C(=O)N[C@@H](CO)C(=O)N[C@@H](CC(C)C)C(N)=O)[C@@H](C)O)[C@@H](C)O)[C@@H](C)O (Ac-TTSTR[Arg(ψCOCO)]SL-NH2)
[9]
  pKi: 3.66

## CCCCCCCCCC[N+](CC)(CC)CCOc1ccc2c(c1)C(=O)c1cc(OCC[N+](CC)(CC)CCCCCCCCCC)ccc1-2
[7]
  pIC50: 4.81

## Oc1c(C(Cc2nc3ccccc3s2)c2cccc(OCc3ccccc3)c2)ccc2ccccc12 (configuration not stated)
[10]
  pIC50: 6.04

## N=C(N)Nc1ccc(OC(=O)c2ccc(NC(=N)N)cc2)cc1
[11]
  pIC50: 5.11

## O=C(Nc1cccs1)c1ccccc1Sc1ccc([N+](=O)[O-])cc1
[7]
  pIC50: 4.01

## Cc1cc(NC(=O)O[C@@H]2C[C@H](Oc3ccc(NC(=N)N)cc3N=C(N)N)[C@@H](N=C(N)N)C[C@H]2N=C(N)N)ccc1F
[1]
  pIC50: 4.68
[2]
  pIC50: 5.09
[3]
  pIC50: 5.15
[4]
  pIC50: 5.59

## c1ccc2[nH]c(-c3ccc(Nc4nnc(Nc5ccc(-c6nc7ccccc7[nH]6)cc5)c5ccccc45)cc3)nc2c1
[12]
  pIC50: 5.96

## N#Cc1ccc(OC(=O)c2ccc(NC(=N)N)cc2)cc1
[11]
  pIC50: 4.42

## N=C(N)Nc1cc(NC(=N)N)c2ccccc2c1O[C@H]1C[C@@H](O)[C@H](NC(=N)N)C[C@@H]1NC(=N)N
[1]
  pIC50: 4.47
[2]
  pIC50: 5.07
[3]
  pIC50: 5.22
[4]
  pIC50: 5.10

## c1ccc([C@H]2Oc3ccccc3[C@@H]3Oc4ccccc4C[C@H]23)cc1
[8]
  pKi: 3.29

## O=C(Nc1nc2ccc([N+](=O)[O-])cc2s1)c1ccccc1Sc1ccc(C(F)(F)F)cc1
[7]
  pIC50: 4.66

## CC(=O)N[C@H](C(=O)N[C@H](C(=O)N[C@@H](CO)C(=O)N[C@H](C(=O)N[C@@H](CCCNC(=N)N)C(=O)N[C@@H](CCCNC(=N)N)C(N)=O)[C@@H](C)O)[C@@H](C)O)[C@@H](C)O (Ac-TTSTRR-NH2)
[5]
  pKi: 4.34

## CC(=O)N[C@@H](Cc1ccccc1)C(=O)N[C@@H](C)C(=O)N[C@@H](C)C(=O)NCC(=O)N[C@@H](CCCNC(=N)N)C(=O)N[C@@H](CCCCN)C(N)=O (Ac-FAAGRK-NH2)
[5]
  pKi: 4.59

## N=C(N)Nc1ccc(NC(=O)O[C@H]2C[C@@H](OC(=O)Nc3ccc(NC(=N)N)cc3)[C@H](NC(=N)N)C[C@@H]2NC(=N)N)cc1
[1]
  pIC50: 4.16
[2]
  pIC50: 4.74
[3]
  pIC50: 4.77
[4]
  pIC50: 4.99

## Cc1[nH]c2ccccc2c1C(=O)NCc1ccc(CN2CCCC2)cc1
[11]
  pIC50: 3.52

## CC(=O)N[C@H](C(=O)N[C@H](C(=O)N[C@@H](CO)C(=O)N[C@H](C(=O)N[C@@H](CCCNC(=N)N)C(=O)N[C@@H](CCCNC(=N)N)C(=O)C(=O)NCC(=O)N[C@H](C(=O)NCC(=O)N[C@@H](CC(N)=O)C(N)=O)[C@@H](C)O)[C@@H](C)O)[C@@H](C)O)[C@@H](C)O (Ac-TTSTR[Arg(ψCOCO)]GTGN-NH2)
[9]
  pKi: 3.43

## O=C1C[C@@H](c2ccc3c(c2)OCCO3)Oc2ccccc21
[8]
  pKi: 3.73

## O=c1cc(-c2ccccc2)oc2ccc(-c3nnn[nH]3)cc12
[8]
  pKi: 4.16

## N=C(N)Nc1ccc(O[C@H]2C[C@H](F)[C@H](NC(=N)N)C[C@@H]2NC(=N)N)c(NC(=N)N)c1
[1]
  pIC50: 4.28
[2]
  pIC50: 4.76
[3]
  pIC50: 4.69
[4]
  pIC50: 5.06

## CC(=O)N[C@@H](CO)C(=O)N[C@@H](CCCCN)C(=O)N[C@@H](CCCCN)C(=O)N[C@@H](CCCNC(=N)N)C(N)=O (Ac-SKKR-NH2)
[5]
  pKi: 3.73

## CC(=O)NCC(=O)N[C@@H](CCCCN)C(=O)N[C@@H](CCCNC(=N)N)C(N)=O (Ac-Gly-Lys-Arg-NH2)
[5]
  pKi: 3.82

## CCN1/C(=C/C=C/c2oc3ccc4ccccc4c3[n+]2CC)Oc2ccc3ccccc3c21
[7]
  pIC50: 4.57

## Oc1c(C(Cc2nc3ccccc3s2)c2ccccc2OCc2ccccc2)ccc2ccccc12 (configuration not stated)
[10]
  pIC50: 5.44

## N=C(N)Nc1ccc(N[C@H]2C[C@@H](NC(=N)N)[C@H](Oc3ccc(NC(=N)N)cc3)C[C@@H]2Oc2ccc(NC(=N)N)cc2)cc1
[1]
  pIC50: 4.91
[2]
  pIC50: 5.40
[3]
  pIC50: 5.00
[4]
  pIC50: 5.28

## Oc1c(C(Cc2nccs2)c2ccccc2OCc2ccccc2)ccc2ccccc12 (configuration not stated)
[10]
  pIC50: 5.63

## N=C(N)NCCC[C@@H](C=O)NC(=O)[C@H](CCCCN)NC(=O)[C@H](CCCCN)NC(=O)Cc1ccccc1 (PhAc-Lys-Lys-Arg-aldehyde)
[6]
  pIC50: 3.78

## CC(=O)N[C@@H](Cc1ccccc1)C(=O)N[C@@H](C)C(=O)N[C@@H](C)C(=O)NCC(=O)N[C@@H](CCCNC(=N)N)C(=O)N[C@@H](CCCNC(=N)N)C(=O)C(=O)N[C@@H](CO)C(=O)N[C@@H](CC(C)C)C(N)=O (Ac-FAAGR[Arg(ψCOCO)]SL-NH2)
[9]
  pKi: 4.33

## O=C(Nc1nc2ccc([N+](=O)[O-])cc2s1)c1ccccc1Sc1ccc([N+](=O)[O-])cc1
[7]
  pIC50: 4.47

## CC1CNC(c2ccc(Nc3nnc(Nc4ccc(C5=NC(C)CN5)cc4)c4ccccc34)cc2)=N1 (configuration not stated)
[12]
  pIC50: 5.05

## Oc1c(C(Cc2nccs2)c2cccc(OCc3ccccc3)c2)ccc2ccccc12 (configuration not stated)
[10]
  pIC50: 5.53

## N=C(N)Nc1ccc(O[C@H]2C[C@@H](Oc3ccc(NC(=N)N)cc3)[C@H](NC(=N)N)C[C@@H]2NC(=N)N)cc1
[1]
  pIC50: 4.70
[2]
  pIC50: 5.05
[3]
  pIC50: 4.96
[4]
  pIC50: 5.30

## CC(=O)N[C@@H](CCC(=O)O)C(=O)N[C@H](C(=O)N[C@@H](CCCCN)C(=O)N[C@@H](CCCCN)C(=O)N[C@@H](CCC(N)=O)C(=O)N[C@@H](CCCNC(=N)N)C(N)=O)C(C)C (Ac-EVKKQR-NH2)
[5]
  pKi: 4.18
